# Experimental data from patent publication US9045483B2, “Inhibition of small ubiquitin-like modifier enzymes with substituted pyrrolo[2,3-b]quinoxalines” (City of Hope, priority 2010, dated 2015).
# Entries after “also recorded” stand apart in the source; their conditions may differ. Where two headings read alike, the source gives them in different places.
# Legend:
# [1] = target: T1, SUMO E1 (Homo sapiens (Human), UniProt Q9UBT2); settings: in the presence of Mg2+; read-out: Kd of ATP binding to E1; cited from earlier work
# T1 sequence (Q9UBT2 whole entry): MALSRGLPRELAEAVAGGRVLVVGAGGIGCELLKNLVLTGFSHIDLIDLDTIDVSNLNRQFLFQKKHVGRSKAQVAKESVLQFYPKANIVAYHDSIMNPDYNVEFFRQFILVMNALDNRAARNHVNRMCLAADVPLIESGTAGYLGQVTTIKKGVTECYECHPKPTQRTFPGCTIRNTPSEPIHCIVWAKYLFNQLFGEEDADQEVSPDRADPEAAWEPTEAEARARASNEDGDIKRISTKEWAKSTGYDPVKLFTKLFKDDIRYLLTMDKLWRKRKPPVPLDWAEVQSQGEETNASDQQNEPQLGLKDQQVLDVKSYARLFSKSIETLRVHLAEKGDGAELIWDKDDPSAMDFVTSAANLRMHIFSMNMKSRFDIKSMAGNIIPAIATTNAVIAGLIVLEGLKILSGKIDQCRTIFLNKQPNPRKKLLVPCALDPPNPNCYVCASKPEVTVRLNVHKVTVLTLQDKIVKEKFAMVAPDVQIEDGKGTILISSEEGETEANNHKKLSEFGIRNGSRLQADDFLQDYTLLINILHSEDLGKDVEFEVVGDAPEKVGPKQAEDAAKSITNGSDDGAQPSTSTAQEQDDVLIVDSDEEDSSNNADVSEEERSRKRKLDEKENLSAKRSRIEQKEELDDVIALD
# T1 sequence (Q9UBE0 whole entry partner): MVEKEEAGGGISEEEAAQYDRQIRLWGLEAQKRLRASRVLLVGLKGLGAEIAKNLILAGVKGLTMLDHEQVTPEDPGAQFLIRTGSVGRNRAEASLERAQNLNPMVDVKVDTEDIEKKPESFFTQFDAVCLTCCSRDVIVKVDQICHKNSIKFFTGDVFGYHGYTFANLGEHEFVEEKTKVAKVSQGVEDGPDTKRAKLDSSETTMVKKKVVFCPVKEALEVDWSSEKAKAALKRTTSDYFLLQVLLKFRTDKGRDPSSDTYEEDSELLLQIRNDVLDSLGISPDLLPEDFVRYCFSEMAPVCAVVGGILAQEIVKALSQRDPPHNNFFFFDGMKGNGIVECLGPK
# [2] = target: T1, SUMO E1; test: NMR saturation transfer difference (STD) competition with ATP; type: binding
# Excerpt: In (A), ATP spectra with assignments indicated, and the percentage of STD effects indicated for each resonance. Red spectrum indicates 2 s saturation at −30 ppm (control), blue spectrum (underneath red) indicates 2 s saturation of protein signals at 0 ppm, and green spectrum (bottom) indicates the difference between the red and blue spectra. […] […] The corresponding STD spectra are color-coded as indicated to the right. A region of the spectrum covering H2 of ATP and H12 and H13 from the compound are shown, with the H2 signal of ATP expanded in the inset. […] The titration data was used to estimate Kd of the compound.
# [3] = test system: 53BP1; test: 53BP1 colocalization with γH2AX at DSB sites in IR-treated cells; type: cell-based; settings: 20 μM, 18 hours, 1 Gy, 1 hour recovery
# Excerpt: (Green: γH2AX; Red: 53BP1).
# [4] = target: ubiquitin E1 (Homo sapiens (Human), UniProt P22314); settings: Ubc5-ubiquitin thioester vs Ubc9-SUMO thioester
# Chain of ubiquitin E1 (P22314 whole entry, looked up): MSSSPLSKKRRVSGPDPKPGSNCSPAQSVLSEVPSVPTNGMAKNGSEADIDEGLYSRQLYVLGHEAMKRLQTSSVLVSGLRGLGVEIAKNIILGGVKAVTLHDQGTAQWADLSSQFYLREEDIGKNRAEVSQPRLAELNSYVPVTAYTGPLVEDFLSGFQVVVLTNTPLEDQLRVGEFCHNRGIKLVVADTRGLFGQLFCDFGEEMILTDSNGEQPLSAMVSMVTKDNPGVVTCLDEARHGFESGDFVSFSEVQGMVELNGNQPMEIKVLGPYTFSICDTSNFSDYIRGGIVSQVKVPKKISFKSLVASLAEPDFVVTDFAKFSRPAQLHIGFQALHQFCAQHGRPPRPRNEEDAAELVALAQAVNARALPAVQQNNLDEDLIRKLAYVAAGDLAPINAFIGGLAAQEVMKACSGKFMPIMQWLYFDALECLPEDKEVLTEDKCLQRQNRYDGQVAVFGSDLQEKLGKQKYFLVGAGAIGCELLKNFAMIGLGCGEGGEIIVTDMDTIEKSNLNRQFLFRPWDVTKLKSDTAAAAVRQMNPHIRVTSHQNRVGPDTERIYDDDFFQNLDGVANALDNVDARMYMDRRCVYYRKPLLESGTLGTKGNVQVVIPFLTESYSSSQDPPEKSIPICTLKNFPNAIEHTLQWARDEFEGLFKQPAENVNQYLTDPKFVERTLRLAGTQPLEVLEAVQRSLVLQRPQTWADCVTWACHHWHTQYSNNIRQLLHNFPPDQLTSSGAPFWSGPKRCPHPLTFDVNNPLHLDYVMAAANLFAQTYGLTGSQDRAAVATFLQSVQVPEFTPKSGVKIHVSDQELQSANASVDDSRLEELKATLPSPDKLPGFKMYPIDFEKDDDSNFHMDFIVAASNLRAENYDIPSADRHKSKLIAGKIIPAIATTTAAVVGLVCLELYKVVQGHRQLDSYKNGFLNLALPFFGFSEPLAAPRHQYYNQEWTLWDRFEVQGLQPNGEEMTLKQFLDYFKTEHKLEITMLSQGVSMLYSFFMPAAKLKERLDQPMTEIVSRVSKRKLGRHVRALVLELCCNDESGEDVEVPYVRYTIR
# [5] = test system: BRCA1; test: BRCA1 colocalization with γH2AX in IR-treated cells; type: cell-based; settings: 20 μM, 18 hours, 1 Gy
# Excerpt: (Green: BRCA1; Red: γH2AX).
# [6] = test system: global SUMOylation in HT29, HCT116 and U373 cells; test: Global SUMOylation in cancer cell lines, Western blot with anti-SUMO2/3 antibodies; type: cell-based; settings: 18 hours; for inhibition of SUMOylation in cells: various concentrations, HCT116, HT29, U373
# Protocol: Western blots (probed with anti-SUMO2/3 antibodies) of cell lysates from HT29, HCT116 and U373 cells treated with compound 1. SUMO2/3 modifies many proteins as poly-SUMO chains, and is detected as high molecular weight smears. 16c indicates the control compound 2 used at concentrations of 16 μM.
# Quinoxaline 1 or 2 was added to cell culture media at various concentrations for 18 hours, after which SUMOylated proteins were detected using anti-SUMO antibodies. […] Thus, quinoxaline 1 has potent and specific inhibitory effects in various cancer cell lines.
# [7] = test system: RanGAP1 stable SUMOylation in U20S and DLD1 cells; test: Stable SUMOylation, RanGAP1 and RanBP2 localization by immunohistochemistry; type: cell-based; settings: 18 hours
# Protocol: Cells were treated with the compound at indicated concentration for 18 hours, and then localization of RanGAP1 and RanBP2 was detected by immunohistochemistry. Nuclei are stained with DAPI.
# [8] = target: T1, SUMO E1; test: SUMO E1 inhibition, formation of the Ubc9-SUMO thioester (biochemical assay)
# [9] = test system: Fa2N-4 cells; test: Toxicity on immortalized human hepatocytes, cellular ATP viability assay; type: cell-based; settings: Fa2N-4, concentrations up to 50 μM, 24 hrs
# Protocol: FIG. 9 illustrates the toxicity of the SUMO inhibitor on normal human liver cells. Immortalized human hepatocytes, Fa2N-4 cells (XenoTech) were seeded at ˜50-60K cells/well, and incubated with a range of concentrations (0.01-50 μM) 1, in duplicate, for 24 hrs at 37° C., 5% CO2. Cell viability was determined by cellular ATP levels using the Luminescence ATP Detection Assay System (Tecan).
# [10] = test system: HIV; type: cell-based
# [11] = test system: MCF7, H1299, DLD1 and SJSA cancer cell lines; test: Sensitization of cancer cell lines to irradiation, MTS cell survival assay; type: cell-based; settings: for sensitization of cancer cell lines to radiation: drug 4 hours, then 4 Gy
# Protocol: The cells were treated with different doses of the drug for 4 hours, followed by irradiation with 4 Gy and incubation for an additional 68 hours. […] Cell survival was assessed by MTS assays
# Quinoxaline 1 was added to cultures of various cancer cell lines for 4 hours, after which cells were irradiated at 4 Gy. Forty-eight hours after irradiation, cell viability was measured by MTS assay.
# [12] = in vitro, read-out: IC50 for SUMO E1
smiles,measurement,setting,value
Nc1ncnc2c1ncn2[C@@H]1O[C@H](COP(=O)(O)OP(=O)(O)OP(=O)(O)O)[C@@H](O)[C@H]1O [ATP],Kd,[1],~0.2 µM
CCCCn1c(NS(=O)(=O)c2ccccc2)c(S(=O)(=O)c2ccc(C)cc2)c2nc3ccccc3nc21 [Tricyclic Compound 1],competition with ATP binding to E1,[2],strong competition with ATP binding
same,reduction in the STD of ATP,"[2]; 30 μM inhibitor, 80 μM ATP, 2 μM E1, 0.4 mM Mg2+",more than 60%
same,Kd,"[2]; estimated from competitive STD data, read-out: Kd (inhibitor-enzyme dissociation constant)",~0.18 µM
same,competition with ATP binding to E1,[2]; listed as quinoxaline 1,competed with the binding of ATP
same,53BP1 colocalization with γH2AX,[3]; DLD1 cells,inhibits 53BP1 colocalization with γH2AX
same,53BP1 colocalization with γH2AX,[3]; U20S cells,inhibits 53BP1 colocalization with γH2AX
same,IC50 for ubiquitin E1 relative to SUMO E1 (selectivity),[4],> 100 fold
same,IC50 for ubiquitin E1 relative to SUMO E1 (selectivity),[4]; listed as quinoxaline 1,more than 100 fold
same,BRCA1 colocalization with γH2AX,"[5]; DLD1 cells, 1 hour recovery",inhibits BRCA1 colocalization with γH2AX
same,BRCA1 colocalization with γH2AX,"[5]; U20S cells, 1 hour",inhibits BRCA1 colocalization with γH2AX
same,inhibition at 16 µM,[6]; 16 μM,> 80%
same,inhibition of SUMOylation in cells,[6],inhibits global SUMOylation in a dose-dependent manner
same,inhibition of SUMOylation in cells,[6]; listed as Quinoxaline 1,inhibited SUMOylation in a dose-dependent manner
same,effect on stable SUMOylation,[7],does not disrupt stable SUMOylation
same,IC50,"[8]; in vitro, listed as compound 1, read-out: IC50 for SUMO E1",~0.5 µM
same,IC50,[8]; [12],0.5 µM
same,toxicity to human hepatocytes,[9],did not cause significant toxicity
same,toxicity to human hepatocytes,[9]; listed as Quinoxaline 1,no toxicity was detected
same,inhibition of HIV infection,[10],inhibited HIV infection in a dose dependent manner; also recorded: inhibits HIV infection in a dose-dependent manner
same,toxicity in cancer cell lines,[11],induced some toxicity in selected cancer cell lines
same,sensitization of cancer cell lines to radiation,[11]; listed as MLS-0207587,significantly lower survival rate
same,sensitization of cancer cell lines to radiation,[11]; listed as Quinoxaline 1,significantly enhanced the sensitivity
CCCCn1c(NC(=O)c2ccccc2Cl)c(C#N)c2nc3ccccc3nc21 [Tricyclic Compound 2],IC50,[8]; [12],20 µM
CCCCn1c(NC(=O)c2ccccc2)c(C#N)c2nc3ccccc3nc21 [Tricyclic Compound 3],IC50,[8]; [12],3.6 µM
CCCCn1c(NC(C)=O)c(C#N)c2nc3ccccc3nc21 [Tricyclic Compound 4],IC50,[8]; [12],8.3 µM
N#Cc1c(NC(=O)c2ccccc2Cl)n(Cc2ccccc2)c2nc3ccccc3nc12 [Tricyclic Compound 5],IC50,[8]; [12],25 µM
CCCCn1c(N)c(S(=O)(=O)c2ccccc2)c2nc3ccccc3nc21 [Tricyclic Compound 6],IC50,[8]; [12],64 µM
CCCCn1c(NC(=O)c2ccccc2)c(S(=O)(=O)c2ccccc2)c2nc3ccccc3nc21 [Tricyclic Compound 7],IC50,[8]; [12],98 µM
CCCCn1c(NC(=O)c2ccc(Cl)cc2)c(C#N)c2nc3cc(C)c(C)cc3nc21 [Tricyclic Compound 8],IC50,[8]; [12],4.5 µM
CCCCNC(=O)c1c(NC(=O)c2ccccc2Cl)n(Cc2ccccc2)c2nc3ccccc3nc12 [Tricyclic Compound 9],IC50,[8]; [12],1.1 µM
CCCCn1c(NC(=O)c2ccco2)c(C#N)c2nc3ccccc3nc21 [Tricyclic Compound 10],IC50,[8]; [12],5.7 µM
CCCCn1c(NC(=O)c2ccccc2Cl)c(S(=O)(=O)c2ccccc2)c2nc3ccccc3nc21 [Tricyclic Compound 11],IC50,[8]; [12],> 100 µM
C=CCn1c(NS(=O)(=O)c2ccccc2)c(S(=O)(=O)c2ccc(C)cc2)c2nc3ccccc3nc21 [Tricyclic Compound 12],IC50,[8]; [12],0.5 µM
CCCCn1c(NC(=O)c2ccc(F)cc2)c(C#N)c2nc3ccccc3nc21 [Tricyclic Compound 13],IC50,"[8]; -BSA, read-out: IC50(-BSA)",0.76 µM
